How the values were obtained:
HEK293T cells = assay: Growth and survival of HEK293T cells (resazurin fluorescence, 72 h); type: cell-based; settings: 0.1% or 10% serum
Method: In order to study the effect of the compound of Formula (Ia) on cell growth and survival, HEK293T cells were cultured for 72 h at different serum concentrations (0.1%, 1%, 10%), in the absence or presence of compounds of Formula (Ia) (50 or 100 μM). The fluorescence of the cells was measured before and after treatment using a reagent containing resazurin. Since the intensity of fluorescence is correlated with the number of living cells, cell growth is estimated by relating the fluorescence measured at 72 h of treatment to that measured at t0. The presence of serum promotes cell growth. Thus, after 72 h, an increase in the cell population of 7 times at 0.1% of serum and of 10 times at 1 or 10% of serum is observed.

IRTK-Grb10 interaction = target: T1, IRTK-Grb10 interaction (Homo sapiens, UniProt P06213); assay: Co-immunoprecipitation of IRTK48-RLuc with Grb10-YFP in co-transfected HEK 293T cells; type: cell-based; settings: same experiment as with Grb14
T1 construct: a construct bearing only the tyrosine kinase domain of the luciferase-fused receptor and the Grb10 protein fused to YFP; expressed in transfected cells; host or cells: HEK 293T
Method: In order to test the specificity of the compound of Formula (Ia) on this IRTK-Grb14 interaction, the same experiment was conducted with HEK 293T cells co-transfected with a construct bearing only the tyrosine kinase domain of the luciferase-fused receptor and the Grb10 protein fused to YFP. Indeed, the Grb10 protein also binds to the phosphorylated insulin receptor and inhibits its catalytic activity.

IR-Grb14 interaction = target: T2, IR-Grb14 interaction (Homo sapiens, UniProt P06213); assay: IR-Luc/Grb14-YFP BRET technique in a cell-free system; type: binding
T2 construct: a vector encoding the insulin receptor fused to the luciferase (IR-Luc); made in house; host or cells: HEK293T (transfected); IR-Luc was partially purified on wheat germ lectin sepharose; Grb14-YFP was used as crude lysate
Method: Compounds according to the invention were experimentally assessed for their inhibitory effect on the IR-Grb14 interaction by a BRET technique in a cell-free system described briefly below.
On the one hand, HEK293T cells were transfected with a vector encoding the insulin receptor fused to the luciferase (IR-Luc). Before lysis, the cells transfected with IR-Luc were stimulated or not with 100 nM insulin for 10 minutes. The IR-Luc lysates were recovered and then purified on sepharose beads coupled with wheat germ lectin (WGL for Wheat Germ Lectin). The IR-Luc receptors were then eluted and then frozen in liquid nitrogen before being stored at −80° C. On the other hand, HEK293T cells were transfected either with a vector encoding the Grb14 protein fused to the YFP (Grb14-YFP), or with the empty plasmid pcDNA3. The cells transfected with Grb14-YFP or with the empty plasmid pcDNA3 were lysed 48 h after transfection. After centrifugation, the lysates are recovered and frozen at −80° C.
The insulin receptors (IR-Luc) partially purified from cells stimulated or not with insulin were incubated for 20 minutes with the inhibitor compounds according to the invention suspended in DMSO. The cellular extracts from cells transfected with Grb14-YFP (or the empty plasmid pcDNA3) were then added and then after 40 minutes of incubation, coelenterazine was added and BRET reading was initiated. The results are expressed as a percentage of the BRET signal obtained in the presence of the molecules tested compared to the BRET signal of the DMSO control.

[1] = Repeat-dose toxicity study in C57Bl/6J mice; type: in vivo
Method: A repeat-dose toxicity study was also conducted in C57Bl/6J mice (12 males, 8 weeks old). Mice were treated daily either by gavage with 30 mg/kg/day of compound of Formula (Ia) diluted in 0.5% carboxymethylcellulose; or by intraperitoneal injection with 30 mg/kg/day of compound of Formula (Ia) diluted in DMSO, or with DMSO alone, for a period of 15 days.

[2] = test system: SREBP-1c, ACC, FAS and SCD1 expression; assay: Expression of lipogenesis genes in hepatocytes in primary culture (RT-qPCR); type: cell-based, mouse; settings: condition G25i (25 mM glucose, 10 nM insulin), 24 h
Method: FIG. 7, the effect of the compound of Formula (Ia) according to the invention (black bars) on the expression of insulin target genes, SREBP-1c, ACC, FAS, and SCD1 (FIGS. 7A-D, respectively) involved in the lipogenesis pathway. Hepatocytes in primary culture are cultured in the presence of 5 mM glucose (G5) or 25 mM glucose (G25) and 10 nM insulin for 24 h. The relative quantification of mRNAs is performed by RT-qPCR. The values are related to the quantification of the 18S gene in the same sample in order to normalize the results. The results are the average of 3 to 5 independent experiments (*p<0.05 by Anova followed by a Newman-Keuls test).
Briefly, mouse hepatocytes in primary culture are cultured in the presence of 5 mM glucose (G5) or 25 mM glucose (G25), and 10 nM insulin for 24 h. The relative quantification of mRNAs is performed by RT-qPCR and the values are related to the quantification of the 18S gene from the same sample in order to normalize the results.

IRTK-Grb14 interaction = target: T3, IRTK-Grb14 interaction (Homo sapiens, UniProt P06213); assay: Co-immunoprecipitation of IRTK48-RLuc with Grb14-YFP in co-transfected HEK 293T cells; type: cell-based; settings: 50 μM; 4 hours; no insulin
T3 construct: a construct bearing only the tyrosine kinase domain of the luciferase-fused receptor (IRTK48-RLuc); expressed in transfected cells; host or cells: HEK 293T
Method: HEK 293T cells co-transfected with a construct bearing only the tyrosine kinase domain of the luciferase-fused receptor (IRTK48-RLuc) and the Grb14 protein fused to YFP were incubated for 4 hours in the presence of compounds according to the invention. In the absence of α subunits, the tyrosine kinase domain of the insulin receptor spontaneously autophosphorylates, so it is not necessary to add insulin to stimulate the IRTK-Grb14 interaction.

T2 sequence (P06213 763-1382 limits assumed): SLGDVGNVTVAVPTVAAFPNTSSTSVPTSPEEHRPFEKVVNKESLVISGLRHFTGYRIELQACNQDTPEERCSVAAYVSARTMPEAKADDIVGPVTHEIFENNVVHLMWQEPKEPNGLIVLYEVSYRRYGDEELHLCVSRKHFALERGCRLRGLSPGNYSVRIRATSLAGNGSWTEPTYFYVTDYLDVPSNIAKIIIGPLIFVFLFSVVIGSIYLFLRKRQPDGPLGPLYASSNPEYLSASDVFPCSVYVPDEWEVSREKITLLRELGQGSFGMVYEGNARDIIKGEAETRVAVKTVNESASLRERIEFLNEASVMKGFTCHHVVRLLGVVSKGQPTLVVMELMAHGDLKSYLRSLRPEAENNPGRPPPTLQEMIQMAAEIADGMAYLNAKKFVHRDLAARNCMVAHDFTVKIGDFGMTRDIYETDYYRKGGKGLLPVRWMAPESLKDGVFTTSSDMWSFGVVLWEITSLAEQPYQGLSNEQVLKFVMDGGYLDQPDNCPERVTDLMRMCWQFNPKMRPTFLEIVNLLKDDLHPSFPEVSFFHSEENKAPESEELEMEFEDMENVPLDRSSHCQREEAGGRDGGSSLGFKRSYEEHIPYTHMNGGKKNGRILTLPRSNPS
T2 sequence (P06213 28-758 partner limits assumed): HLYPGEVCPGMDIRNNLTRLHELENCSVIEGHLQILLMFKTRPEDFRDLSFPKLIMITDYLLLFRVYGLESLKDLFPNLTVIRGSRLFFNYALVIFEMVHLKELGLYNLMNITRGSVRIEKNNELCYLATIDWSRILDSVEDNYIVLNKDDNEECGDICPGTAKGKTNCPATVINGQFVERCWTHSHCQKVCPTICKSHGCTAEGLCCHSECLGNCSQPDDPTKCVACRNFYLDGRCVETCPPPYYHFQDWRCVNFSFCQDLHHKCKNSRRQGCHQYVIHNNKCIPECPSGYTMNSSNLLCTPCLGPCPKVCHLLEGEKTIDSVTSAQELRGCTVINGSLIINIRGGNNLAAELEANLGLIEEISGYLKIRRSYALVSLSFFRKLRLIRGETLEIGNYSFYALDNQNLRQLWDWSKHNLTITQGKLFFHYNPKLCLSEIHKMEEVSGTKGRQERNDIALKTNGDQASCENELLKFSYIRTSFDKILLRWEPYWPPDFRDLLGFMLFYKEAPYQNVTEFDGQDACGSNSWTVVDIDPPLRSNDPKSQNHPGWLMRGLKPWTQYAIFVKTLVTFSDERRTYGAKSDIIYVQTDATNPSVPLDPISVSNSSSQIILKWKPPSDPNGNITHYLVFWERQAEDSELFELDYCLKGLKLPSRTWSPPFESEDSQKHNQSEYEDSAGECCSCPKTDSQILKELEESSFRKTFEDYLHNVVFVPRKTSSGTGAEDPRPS
T1 sequence (P06213 1023-1298 limits assumed): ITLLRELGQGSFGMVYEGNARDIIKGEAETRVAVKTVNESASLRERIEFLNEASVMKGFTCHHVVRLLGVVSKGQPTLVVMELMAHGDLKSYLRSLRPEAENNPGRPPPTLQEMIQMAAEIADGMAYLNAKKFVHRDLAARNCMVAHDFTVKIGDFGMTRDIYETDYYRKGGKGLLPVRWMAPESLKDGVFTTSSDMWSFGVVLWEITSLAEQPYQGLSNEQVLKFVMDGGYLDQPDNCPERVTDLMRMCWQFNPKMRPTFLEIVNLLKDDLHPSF
T3 sequence (P06213 1023-1298 limits assumed): as above

Cc1ccc(/C=C/C(=O)Nc2ccc(S(=O)(=O)Nc3onc(C)c3C)cc2)o1 [Ia]
cell growth rate (HEK293T cells; 50 μM): does not alter
cell growth rate (HEK293T cells; 100 μM): does not alter
amounts of tyrosine kinase domain of the insulin receptor co-immunoprecipitated with the Grb10 protein (IRTK-Grb10 interaction): does not change
remaining activity at 50 µM (IR-Grb14 interaction; 50 μM, insulin stimulation (100 nM), read-out: % BRET signal/DMSO control): 39%
decrease in the BRET signal between the insulin receptor and the Grb14 protein (IR-Grb14 interaction; 50 μM, with insulin stimulation): 60%
decrease in the BRET signal (IR-Grb14 interaction; in the absence of stimulation with insulin): 50%
liver appearance ([1]; 30 mg/kg/day by gavage or intraperitoneal injection): no difference
weight gain ([1]; 30 mg/kg/day by gavage or intraperitoneal injection, after 12 days of treatment): no difference
blood glucose level measured in the post-absorptive state ([1]; 30 mg/kg/day, regardless of the administration mode): decrease
toxic effect (overall conclusion) ([1]; HEK293T cells and repeat-dose mouse study): no detectable toxic effect
increase of the effect of insulin on the expression of ACC [2]: about 60%
increase of the effect of insulin on the expression of FAS [2]: about 60%
increase of the effect of insulin on the expression of SCD1 [2]: about 60%
increase of the effect of insulin on the expression of SREBP-1c [2]: about 60%
reduction of the amount of tyrosine kinase domain of the insulin receptor co-immunoprecipitated with the Grb14 protein (IRTK-Grb14 interaction): 75%

— patent publication US11020378B2, “Compounds, compositions and methods for treating insulin resistance” (UNIVERSITE PARIS DESCARTES, priority 2017, dated 2021)
